Legend:
mouse WT SLACK = biological target: T1, mouse WT SLACK (Mus musculus, UniProt Q6ZPR4); test: Whole-cell APC in CHO cells stably expressing mouse WT SLACK; type: cell-based; settings: for IC50: APC, CHO cells; for Imax: maximum inhibition at 30 µM standardized to VU0606170 (100%)
T1 construct: expressed in transfected cells; host or cells: CHO
T1 sequence (Q6ZPR4 1-1224): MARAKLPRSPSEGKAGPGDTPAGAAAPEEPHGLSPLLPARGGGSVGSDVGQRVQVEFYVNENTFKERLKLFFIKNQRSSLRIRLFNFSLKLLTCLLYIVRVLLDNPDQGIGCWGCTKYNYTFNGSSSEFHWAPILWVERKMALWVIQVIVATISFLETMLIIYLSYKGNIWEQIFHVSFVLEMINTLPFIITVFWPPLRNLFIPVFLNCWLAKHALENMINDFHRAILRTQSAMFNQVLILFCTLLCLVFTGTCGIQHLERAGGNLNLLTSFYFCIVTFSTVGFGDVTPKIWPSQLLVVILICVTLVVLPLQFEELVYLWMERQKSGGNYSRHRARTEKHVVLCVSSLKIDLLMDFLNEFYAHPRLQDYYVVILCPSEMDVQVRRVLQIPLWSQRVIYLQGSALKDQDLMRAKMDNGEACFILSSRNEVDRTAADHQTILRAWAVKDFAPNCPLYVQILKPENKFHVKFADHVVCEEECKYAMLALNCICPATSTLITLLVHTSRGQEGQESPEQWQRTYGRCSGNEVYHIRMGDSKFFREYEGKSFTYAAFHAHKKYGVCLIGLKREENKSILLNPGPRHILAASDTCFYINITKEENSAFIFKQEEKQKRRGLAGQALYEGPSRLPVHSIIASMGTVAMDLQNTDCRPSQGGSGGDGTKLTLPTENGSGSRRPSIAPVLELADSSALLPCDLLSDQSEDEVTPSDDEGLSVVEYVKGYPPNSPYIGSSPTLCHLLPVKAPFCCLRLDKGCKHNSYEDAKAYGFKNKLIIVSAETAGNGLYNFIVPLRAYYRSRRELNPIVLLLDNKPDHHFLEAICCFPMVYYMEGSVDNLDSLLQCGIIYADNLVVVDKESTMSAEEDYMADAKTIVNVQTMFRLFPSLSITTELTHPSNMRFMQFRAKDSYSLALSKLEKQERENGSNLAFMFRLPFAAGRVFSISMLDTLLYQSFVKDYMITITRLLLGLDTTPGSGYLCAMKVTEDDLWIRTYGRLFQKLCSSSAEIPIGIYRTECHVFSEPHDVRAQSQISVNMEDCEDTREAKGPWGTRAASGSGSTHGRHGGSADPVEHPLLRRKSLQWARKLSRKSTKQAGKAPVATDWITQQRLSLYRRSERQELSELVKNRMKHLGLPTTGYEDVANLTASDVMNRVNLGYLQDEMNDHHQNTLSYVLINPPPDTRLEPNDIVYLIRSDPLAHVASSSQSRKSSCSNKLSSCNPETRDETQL
Description: Development of a useful SLACK inhibitor in vivo tool will require potent activity at the corresponding mouse ortholog as studies in appropriate mouse models will be critical. Thus, we evaluated analogs 32 and 48 in our APC assay using CHO cells stably expressing mouse WT SLACK (Table 6). […] We were also eager to evaluate the same compounds with regard to their ability to inhibit clinically relevant GOF SLACK mutants. Both the C-terminus A934T mutant and transmembrane G288S mutant have been associated with clinical cases of EIMFS [3, 7].
Automated patch-clamp recording was performed with a SyncroPatch 768 PE system (Nanion, Munich, Germany) as previously described. Whole-cell recordings were performed at room temperature. Cells were harvested by first washing with PBS without Mg^2+ or Ca^2+ (Gibco, Billings, MT, USA) to remove cell culture media, followed by dissociation with TryPLE (Gibco, Billings, MT, USA). Cells were then resuspended and diluted to 100,000 cells/mL in external solution. External solution contained 105 mM NaCl, 4 mM KCl, 1 mM MgCl2, 5 mM CaCl2, 10 mM HEPES, and 40 mM N-Methyl-D-glucamine chloride, titrated to pH of 7.4 and osmolarity of 300 mOsm/kg; internal solution contained 70 mM NaCl, 70 mM KF, 10 mM KCl, 5 mM EGTA, and 5 mM HEPES, titrated to a pH of 7.2 and osmolarity of 295 mOsm/kg.
The APC protocol was set as follows: Cells were held at a […] of −80 mV for 100 ms, then a ramp protocol was performed from −100 mV to 80 mV at 0.4 mV/ms, followed by holding the cell at −80 mV for another 100 ms, then steps were performed at −20 mV, 0 mV, +20 mV, +40 mV, and +60 mV for 100 ms of each step. Whole-cell currents were measured at 0 mV and normalized to current after external buffer addition. […] To obtain the concentration-response relationship graphs and IC50 values, we take the median value of the last 7 current amplitude values obtained for each set of data points collected for a given concentration at a particular step.

WT hSLACK = WT hSLACK (Homo sapiens, UniProt Q5JUK3); test: Whole-cell automated patch-clamp (APC) in CHO cells stably expressing WT hSLACK; type: cell-based; settings: range across the three variants, APC; read-out: IC50 values across WT, A934T, and G288S SLACK
Procedure, shortened: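 CHO-K1 cells stably expressing human SLACK were whole-cell recorded at room temperature with Na/NMDG external solution pH 7.4 and KF-based internal pH 7.2. Concentrations 0.125–30 μM in half-log steps, ≥3 cells each; ramp and step protocol from −80 mV holding, current at 0 mV normalized to post-buffer current, IC50 from median of last 7 amplitudes.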

Chain of WT hSLACK (Q5JUK3 whole entry): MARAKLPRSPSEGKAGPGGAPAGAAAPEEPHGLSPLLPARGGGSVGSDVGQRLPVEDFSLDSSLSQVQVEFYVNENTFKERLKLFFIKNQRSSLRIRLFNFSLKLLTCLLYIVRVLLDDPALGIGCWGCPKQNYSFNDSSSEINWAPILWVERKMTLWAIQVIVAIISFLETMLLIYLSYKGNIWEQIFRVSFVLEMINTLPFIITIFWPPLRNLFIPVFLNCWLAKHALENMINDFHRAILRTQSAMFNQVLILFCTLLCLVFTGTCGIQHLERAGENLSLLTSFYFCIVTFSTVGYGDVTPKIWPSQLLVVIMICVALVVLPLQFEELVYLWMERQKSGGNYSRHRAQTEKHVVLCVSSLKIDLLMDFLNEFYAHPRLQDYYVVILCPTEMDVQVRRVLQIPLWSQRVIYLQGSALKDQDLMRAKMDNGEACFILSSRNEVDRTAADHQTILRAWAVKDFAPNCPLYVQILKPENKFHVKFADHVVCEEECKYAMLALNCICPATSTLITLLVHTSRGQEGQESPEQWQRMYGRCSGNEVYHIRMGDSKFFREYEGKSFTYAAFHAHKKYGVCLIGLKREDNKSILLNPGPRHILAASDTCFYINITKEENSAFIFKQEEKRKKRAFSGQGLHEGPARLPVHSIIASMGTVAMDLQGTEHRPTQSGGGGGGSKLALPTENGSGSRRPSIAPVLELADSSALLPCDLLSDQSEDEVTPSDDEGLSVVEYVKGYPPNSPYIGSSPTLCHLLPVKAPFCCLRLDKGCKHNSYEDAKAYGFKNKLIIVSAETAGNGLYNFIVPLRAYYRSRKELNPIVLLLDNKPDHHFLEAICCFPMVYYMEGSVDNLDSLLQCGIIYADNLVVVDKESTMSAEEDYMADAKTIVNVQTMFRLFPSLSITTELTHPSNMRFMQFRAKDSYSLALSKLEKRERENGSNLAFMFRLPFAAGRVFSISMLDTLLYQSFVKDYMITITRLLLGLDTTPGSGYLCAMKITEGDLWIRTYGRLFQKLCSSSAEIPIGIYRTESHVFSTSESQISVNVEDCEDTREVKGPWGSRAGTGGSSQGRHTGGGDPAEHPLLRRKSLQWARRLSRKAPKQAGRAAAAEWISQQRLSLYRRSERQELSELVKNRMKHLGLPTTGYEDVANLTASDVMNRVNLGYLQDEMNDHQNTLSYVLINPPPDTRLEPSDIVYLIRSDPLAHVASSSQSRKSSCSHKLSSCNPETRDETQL

| Structure (SMILES) | IC50 (mouse WT SLACK) | Imax (mouse WT SLACK) | IC50 (WT hSLACK) |
| --- | --- | --- | --- |
| COc1cccc(Cn2c(=O)c3c(nc(N(C)Cc4ccccc4)n3C)n(C)c2=O)c1 [Analog 32] | 1.4 µM | 100% |  |
| CN(Cc1cccc(F)c1)c1nc2c(c(=O)n(Cc3ccccc3)c(=O)n2C)n1C [Analog 48] | 1.3 µM | 100% |  |
| CCCCN(Cc1ccc(F)cc1)c1nc2c(c(=O)n(Cc3cccc(OC)c3)c(=O)n2C)n1C [Analog 80] |  |  | 0.59 to 0.71 µM |
